Measurements taken from ChEMBL document CHEMBL1134410, “Discovery of novel N-phenylglycine derivatives as potent and selective beta(3)-adrenoceptor agonists for the treatment of frequent urination and urinary incontinence” (J Med Chem, 2001).
pEC50, pIC50: −log10 of the molar value.

How the values were obtained:
Format in all cases: functional
[1] = target: Beta-2 adrenergic receptor (Rattus norvegicus, UniProt P10608); assay: Agonistic activity towards beta-2 adrenoceptor. Mean concentration required to produce 50% inhibition of uterine contraction
Beta-2 adrenergic receptor, sequence (P10608 whole entry): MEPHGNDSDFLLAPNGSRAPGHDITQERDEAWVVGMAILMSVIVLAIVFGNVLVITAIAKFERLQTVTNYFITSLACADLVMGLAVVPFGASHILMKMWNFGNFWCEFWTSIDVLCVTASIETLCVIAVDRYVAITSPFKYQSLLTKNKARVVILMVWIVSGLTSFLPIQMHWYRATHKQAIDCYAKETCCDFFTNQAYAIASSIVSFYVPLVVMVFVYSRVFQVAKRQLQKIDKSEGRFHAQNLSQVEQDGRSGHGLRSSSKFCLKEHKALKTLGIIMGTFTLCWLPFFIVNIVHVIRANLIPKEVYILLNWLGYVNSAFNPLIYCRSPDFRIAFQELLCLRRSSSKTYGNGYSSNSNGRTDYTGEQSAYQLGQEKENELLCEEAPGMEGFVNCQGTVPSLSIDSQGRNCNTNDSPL

[2] = Concentration ratio of beta-2 (EC50) to beta3 (EC50)
[3] = Concentration ratio of beta-1 (EC50) to beta3 (EC50)
[4] = target: Beta-1 adrenergic receptor (Rattus norvegicus) (UniProt P18090); assay: Increase in BPM in isolated rat atria.
Beta-1 adrenergic receptor (Rattus norvegicus), sequence (P18090 whole entry, looked up): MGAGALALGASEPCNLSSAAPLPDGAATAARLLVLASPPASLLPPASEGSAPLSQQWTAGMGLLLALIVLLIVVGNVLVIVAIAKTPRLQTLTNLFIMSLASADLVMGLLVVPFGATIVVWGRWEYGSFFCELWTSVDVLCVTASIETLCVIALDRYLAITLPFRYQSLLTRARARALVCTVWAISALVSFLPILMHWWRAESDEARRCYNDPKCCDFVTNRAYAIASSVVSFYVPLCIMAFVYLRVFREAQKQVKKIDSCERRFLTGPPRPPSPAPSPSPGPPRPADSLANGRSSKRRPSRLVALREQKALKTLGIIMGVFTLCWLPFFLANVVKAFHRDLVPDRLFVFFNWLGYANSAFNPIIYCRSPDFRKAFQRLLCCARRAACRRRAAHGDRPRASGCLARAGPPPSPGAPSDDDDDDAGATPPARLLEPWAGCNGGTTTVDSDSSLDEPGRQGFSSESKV

Rattus norvegicus [5] = species on record: Rattus norvegicus; assay: In vitro concentration required to produce 50% relaxation of rat detrusor
Rattus norvegicus [6] = assay: In vivo dose required to lower the intrabladder pressure of the anesthetized rat by 50% over that before compound administration
Mustela putorius furo = species on record: Mustela putorius furo; assay: In vitro concentration required to produce 50% relaxation of ferret detrusor
[7] = Concentration ratio of beta-1 (EC50) to beta-3 (EC50)
[8] = Concentration ratio of beta2 (EC50) to […]

Structure (SMILES)	Selectivity [2]	Selectivity [3]	-Log EC20 [4]	pIC50 [1]	also measured
C[C@H](NCCc1ccc(N(C)CC(=O)O)c(Cl)c1)[C@H](O)c1ccc(O)cc1	> 9090	2270	4.6	–	-Log IC50 [1]: > 4
C[C@H](NCCc1ccc(NCC(=O)O)cc1)[C@H](O)c1ccc(O)cc1	27	54	5.89	6.19	–
C[C@H](NCCc1cc(Cl)c(NCC(=O)O)c(Cl)c1)[C@H](O)c1ccc(O)cc1	1000	2070	4.54	4.85	pEC50 (Rattus norvegicus [5]): 6.72; ED50 (Rattus norvegicus [6]): 0.048 mg/kg; pEC50 (Mustela putorius furo): 7.85
CC(NCCc1ccc(O)cc1)C(O)c1ccc(O)cc1 (configuration not stated) [RITODRINE]	–	–	6.8	7.62	–
C[C@H](NCCc1ccc(NCC(=O)O)cc1Cl)[C@H](O)c1ccc(O)cc1	8.6	15	6.96	7.21	–
C[C@H](NCCc1ccc(NCC(=O)O)c(Cl)c1Cl)[C@H](O)c1ccc(O)cc1	3.7	0.33	6.82	5.77	–
C[C@H](NCCc1ccc(NC(C)(C)C(=O)O)cc1Cl)[C@H](O)c1ccc(O)cc1	250	–	6.59	5.85	Selectivity [7]: 46
C[C@H](NCCc1ccc(NCC(=O)O)c(I)c1)[C@H](O)c1ccc(O)cc1	2.7	6.6	5.27	5.66	–
C[C@H](Cc1ccc2c(c1)OC(C(=O)O)(C(=O)O)O2)NC[C@H](O)c1cccc(Cl)c1	–	–	4.77	–	–
C[C@H](NCCc1ccc(N(CC(=O)O)CC(=O)O)cc1)[C@H](O)c1ccc(O)cc1	–	–	4.57	6.55	–
C[C@H](NCCc1ccc(NCC(=O)O)c(Br)c1)[C@H](O)c1ccc(O)cc1	2.5	14	5.1	5.85	–
C[C@H](NCCc1cc(Cl)c(N(C)CC(=O)O)c(Cl)c1)[C@H](O)c1ccc(O)cc1	> 625	> 625	> 4	–	-Log IC50 [1]: > 4
C[C@H](NCCc1ccc(N(C)CC(=O)O)cc1)[C@H](O)c1ccc(O)cc1	31	65	5.47	5.80	–
C[C@H](NCCc1cc(Br)c(NCC(=O)O)c(Br)c1)[C@H](O)c1ccc(O)cc1	32	235	4.72	5.59	–
C[C@H](NCCc1ccc(N(CC(=O)O)Cc2ccccc2)cc1)[C@H](O)c1ccc(O)cc1	–	–	6.82	6.60	–
C[C@H](Cc1ccc(OCC(=O)O)cc1)NC[C@H](O)c1cccc(Cl)c1	–	–	–	8.04	–
C[C@H](NCCc1cc(Cl)c(NCC(=O)O)cc1Cl)[C@H](O)c1ccc(O)cc1	21	21	5.89	5.89	–
CC(C)NCC(O)c1ccc(O)c(O)c1 (configuration not stated) [ISOPROTERENOL]	–	–	–	–	pEC50 (Rattus norvegicus [5]): 8.00; ED50 (Rattus norvegicus [6]): 0.0006 mg/kg
C[C@H](NCCc1ccc(NC(C)(C)C(=O)O)cc1)[C@H](O)c1ccc(O)cc1	–	–	4.96	4.96	–
C[C@H](NCCc1ccc(NCC(=O)O)c(Cl)c1)[C@H](O)c1ccc(O)cc1	–	2900	5.57	5.48	Selectivity [8]: 3550
